Source: patent publication US20050255118A1, “Methods and composition for treating tumors and metastatic disease” (priority 2004, published 2005)
Read-outs that look alike come from different tables or passages of the source.

What was measured:
[1] = tested on: human acute lymphoblastic leukemia xenografts; experiment: Necropsy and histopathologic evaluation of xenograft-bearing SCID mice; set-up: species or system female SCID mice; details: mouse, in vivo
Method: Animals No. 1-10 in Groups 1-4 were euthanized on Day 47 after tumor implantation (16 May 2003); Animals No. 11-20 in Groups 1-4 were euthanized on Day 48 (17 May 2003). All surviving animals in Groups 5 and 6 (except for Animal No. 12 in Group 5 and Animal No. 8 in Group 6, for explanations see below) were euthanized on Day 80 after tumor implantation […]. Animal No. 12 in Group 5 was sacrificed on Day 73 due to excessive tumor weight (>4,000 mg). Animal No. 8 in Group 6 was sacrificed on Day 73 due to tumor ulceration. Five animals in Group 7 were euthanized on Days 14, 21, 28, 35, and ten animals were euthanized on Day 38. Carcasses of all animals alive on Days 47, 48, and 80 were submitted to the Safety Assessment Department of Southern Research Institute for necropsy followed by complete histopathological evaluation. Animals in Group 7 were excluded from necropsy and complete histopathological evaluation. For the animals in Groups 1-6, tumor implantation (subcutaneous) took place on Day 0. Treatment was initiated on Day 14, and treatment was terminated on Day 45. Primary tumor excision occurred on Day 28 post-implantation in Groups 5 and 6. The animals were sacrificed on Day 80. Animals in the non-excision group were sacrificed at days 47-48.
Each tumor weighing more than 100 mg was cut in half and one half of the each tumor was frozen in O.C.T. compound using a dry ice/ethanol slush, and stored at −84° C. Tumors weighing less than 100 mg (tumors of Animals No. 1, 3, 7, 9, 11, 12, 14-18, and 20 in Group 4) were frozen in O.C.T. compound in toto. Tumor of Animals No. 2, 4, 5, 6, 8, 13, and 19 in Group 4, which weighed less than 100 mg, were preserved in 10% buffered formalin in toto. After the completion of the experiment all tumor samples frozen in O.C.T. compound (a total of 145 tumor samples) were shipped to Sierra Biomedical, Division of Charles River Laboratories, to be examined by immunohistochemistry to verify that MOLT-4 was expressing VLA-4 in vivo and thus was a valid tumor model for this study. […]

[2] = tested on: human MOLT-4 acute lymphoblastic leukemia xenografts; experiment: Growth of subcutaneously-implanted human MOLT-4 xenografts in SCID mice; format: in vivo, female SCID mice; details: for Effect on growth of SC-implanted MOLT-4 xenografts (primary tumor): treatment after establishment of tumor
Method: Mice were fed sterilizable rodent diet (Harlan-Teklad TD8656). Cages were changed twice weekly.
Thirty-to-forty milligram fragments of MOLT-4 human leukemia were implanted in mice near the right auxiliary area using a 12-gauge trocar needle and allowed to grow. The day of tumor fragment implantation was Day 0 of the experiment. Tumors were allowed to reach 75-144 mg in weight (75-144 mm3 in size) before the start of the treatments. A sufficient number of mice were implanted so that tumors in a weight range as narrow as possible were selected for the trial on the day of treatment initiation (Day 14 after tumor implantation). Those animals selected with tumors in the proper size range were randomized into treatment groups. The mean tumor weights on the first day of treatment were ranging from 84 or 96 mg; median tumor weights were 75 or 88 mg on Day 14.
Natalizumab (a 20-mg/mL solution, Gensia Sicor Pharmaceuticals Inc., Lot Nos. F23014 and G23004) and a diluent (Placebo for Tysabri®, Gensia Sicor Pharmaceuticals Inc., Lot No. F85002) were received from Biogen Idec Inc. and were stored at +2-8° C. upon receipt. Vials with a 0.97-mg/mL solution of human immunoglobulin (IgG4) were supplied by Sigma-Aldrich (St. Louis, Mo., Lot No. 122K9159) and were stored at −84° C. upon receipt. A clinical formulation of Taxol® (placlitaxel) (6.0 mg/mL in 50% cremophor-EL/50% ethanol, Bristol-Myers Squibb Company, Princeton, N.J.; Lot No. 2L57296) was purchased and refrigerated upon receipt. Saline (Saline Solution 0.9%, for animal use only) was purchased from Phoenix Pharmaceutical, Inc. (St. Joseph, Mo., Lot Nos. 262053F, 206205F, 208281F) and stored at room temperature. A new bottle of saline was used on each day of formulation.
On Day 14, a 20-mg/mL solution of natalizumab was diluted with Placebo for Tysabri® to 1.0 mg/mL. On subsequent injection days, a 0.5-mg/mL solution of natalizumab was formulated by diluting a 20-mg/mL stock solution with Placebo for Tysabri®. Care was taken not to shake the vials with natalizumab; the vials were inverted to mix. A new vial of natalizumab and Placebo for Tysabri® were used on each day of formulation. On Day 14, a supplied 0.97-mg/mL stock solution of IgG4 was thawed and injected into mice. On subsequent injection days, a 0.5-mg/mL solution of IgG4 was prepared by diluting a 0.97-mg/mL stock solution with Saline Solution 0.9%. A new vial with IgG4 was used on each day of formulation. An aliquot of a commercially formulated 6-mg/mL solution of Taxol® in 50% cremophor-EL/50% ethanol was diluted on each day of injection with Saline Solution 0.9% to make a 1.5-mg/mL solution in 12.5% cremophor-EL/12.5% ethanol/75% saline. All dosing solutions were injected within 2 to 3 hours of formulation.
Primary tumors of animals in Groups 5 and 6 were surgically excised on Day 28, one day after the median tumor weight in Group S reached 466 mg. Administration of anesthesia and surgery/post-surgery recovery procedures were conducted following approved standard laboratory methods. Briefly, each animal was anesthetized and the incision site was prepared with an antiseptic solution. An incision along the periphery of one side of the tumor (no more than 3-4 mm longer than the diameter of the tumor) was made, the skin was reflected and the tumor was everted through the incision. Tumor was dissected away from the skin and muscle. The incision was closed with a 4.0-mm wound clip. Each excised tumor was cut in half, with one half of the tumor frozen in O.C.T. compound and the second half of the tumor preserved in 10% buffered formalin. The site of the resection was monitored for tumor re-growth twice a week and when a new solid tumor was formed, its dimensions were recorded.
Animals No. 1-10 in Groups 1-4 were euthanized on Day 47 after tumor implantation (16 May 2003); Animals No. 11-20 in Groups 1-4 were euthanized on Day 48 (17 May 2003). […]

[3] = mouse, in vivo
Excerpt: (§4) In-life experimental work commenced on Day 0 and was terminated on Day 80. Five-to-six-weeks-old, female SCID mice were purchased from Taconic Farms, Inc. (Germantown, N.Y.) and acclimated in the laboratories one week prior to experimentation. The animals were housed in a pathogen-free barrier facility in micro-isolator cages, with five animals per cage in a 12-hour light/dark cycle. The animals received filtered Birmingham municipal water and sterile rodent food ad libitum. Mice were fed sterilizable rodent diet (Harlan-Teklad TD8656). Cages were changed twice weekly. The animals were observed daily and clinical signs were noted.
(§5) Animals were randomly divided into six groups of 20 animals each and one group of 30 animals. Two groups (Groups 1 and 5) were treated with Saline Solution 0.9% (saline). Animals in Groups 2, 6, and 7 were treated with natalizumab. Animals in Group 3 were treated with IgG4 (isotype control). Animals in Group 4 were treated with Taxol® (positive control). Treatments with saline, natalizumab, and IgG4 (Groups 1, 2, 3, 5, and 6) were administered IP on Days 14, 17, 21, 24, 28, 31, 35, 38, 42, and 45 (Q3D×2 for five weeks, Friday-Monday schedule). Treatment with natalizumab in Group 7 (a group of 30 mice) was administered on Days 14, 17, 21, 24, 28, 31, 35, and 38 (Q3D×2 for four weeks). On Day 14 natalizumab was administered at a dosage of 10 mg/kg, followed by further treatments with a dosage of 5 mg/kg/dose. […]
(§6) The animals were weighed and the subcutaneous (SC) tumors were measured on the days when treatments were administered starting on Day 14 with an exception of two measurements which were done one day before the injection (on Days 24 and 41). […]
(§7) The number of non-specific deaths, number of partial and complete tumor regressions, number of tumor-free survivors, and the individual animal's time to reach the evaluation size (time to reach four tumor mass doublings) were determined. […] Mean body weights and standard deviations were calculated for each group on each day of data collection (values are presented in Tables 8-9 through 8-15).

HT-29 cell line = experiment: 3H-thymidine incorporation (tritiated thymidine uptake) proliferation assay, HT-29; format: cell-based; details: 1, 2, 3, 4 and 5 days of exposure, eight concentrations (0.001-100 mg/mL)
Method: (§1) In order to assess the potential of natalizumab to induce or inhibit proliferation of transformed cells and clonal expansion possibly leading to neoplasia, experiments were performed to determine the ability of natalizumab to stimulate growth of malignant cells expressing the receptor in vitro, and studies were conducted in animal tumor models.
(§2) The evaluation of positive or negative effects on proliferation of the tumor cell lines was performed using 3H-thymidine incorporation assays. Evaluation of the inhibition or potentiation of human tumor cell growth and/or metastasis was determined using a tumor xenograft nude/SCID mouse model. Thirty-two tumor cell lines were screened. Of the thirty-two tumor cell lines, twelve were colorectal carcinoma, colorectal adenocarcinoma, colon adenocarcinoma, or colon carcinoma cell lines; seven were melanomas or amelanotic melanomas; six were urinary bladder transitional cell carcinomas or urinary bladder carcinomas; three were leukemias; two were lymphomas; and two were prostate carcinomas.
(§3) An adhesion assay for VCAM-1 binding was also performed. Seven of the eleven cell lines evaluated were positive. […] AS283, HT-29, MOLT-4, and UM-UC-3 cell lines were treated with Tysabri® (natalizumab). Tritiated thymidine uptake was measured.

[4] = Tolerability (deaths, body weight) in MOLT-4 xenograft-bearing SCID mice
Excerpt: as §4, §5, §6, §7

AS283 cell line = experiment: 3H-thymidine incorporation (tritiated thymidine uptake) proliferation assay, AS283; format: cell-based; details: 1, 2, 3, 4 and 5 days of exposure, eight concentrations (0.001-100 mg/mL)
Method: as §1, §2, §3

[5] = tested on: tumor cell lines (nine evaluated); experiment: Preliminary cell proliferation assay on nine tumor cell lines; format: cell-based; details: all nine of the nine cell lines evaluated
Method: as §2, §3

[6] = tested on: human MOLT-4 acute lymphoblastic leukemia xenografts; experiment: Growth of subcutaneously-implanted human MOLT-4 xenografts in SCID mice; format: in vivo, female SCID mice; details: treatment initiated Day -7
UM-UC-3 cell line = experiment: 3H-thymidine incorporation (tritiated thymidine uptake) proliferation assay, UM-UC-3; format: cell-based; details: 1, 2, 3, 4 and 5 days of exposure, eight concentrations (0.001-100 mg/mL)
Method: as §1, §2, §3

MOLT-4 cell line = experiment: 3H-thymidine incorporation (tritiated thymidine uptake) proliferation assay, MOLT-4; format: cell-based, human; details: 1, 2, 3, 4 and 5 days of exposure, eight concentrations (0.001-100 mg/mL)
Method: as §1, §2, §3

For `CC(=O)O[C@H]1C(=O)[C@@]2(C)[C@H]([C@H](OC(=O)c3ccccc3)[C@]3(O)C[C@H](OC(=O)[C@H](O)[C@@H](NC(=O)c4ccccc4)c4ccccc4)C(C)=C1C3(C)C)[C@]1(OC(C)=O)CO[C@@H]1C[C@@H]2O` [Taxol, placlitaxel, reference compound], the “Gross and microscopic lesions, relation to treatment” value [1] was “spontaneous or incidental and unrelated”, the “Measurable tumors that doubled their mass once over the course of the experiment” value ([2]; no excision (Group 4)) was “three out of eight” and the “Animals with no measurable tumor at termination of the experiment” value ([2]; no excision, 15 mg/kg/dose IV Q1Dx5 from Day 14) was “Twelve out of twenty”. The “Effect on growth of SC-implanted MOLT-4 xenografts (primary tumor)” value ([2]; no excision) was “very effective in the inhibition” and the Tolerability of administration [3] was “well tolerated without deaths or sustained body weight loss”.
For “natalizumab: a humanized antibody against VLA-4 as described in U.S. Pat. Nos. 5,840,299 and 6,033,665”, the “Exacerbation of growth or metastasis of the xenografts (histopathology)” value [1] was “no evidence of exacerbation of growth or metastasis”, the “Gross and microscopic lesions, relation to treatment” value [1] was “spontaneous or incidental and unrelated” and the “Tritiated thymidine uptake: cytotoxic or proliferative effect” value (shortened to “Tritiated thymidine uptake”) (HT-29 cell line) was “no evidence of a cytotoxic or proliferative effect”. The Median tumor weight ([2]; Day 47, treatment started Day 14 on established tumor, no excision (Groups 2-4)) was 1240 mg, the “Median tumor weight (re-grown tumor)” value ([2]; Day 80, primary tumor excised Day 28 (Group 6)) was 1006 mg and the “Animals staying tumor-free on day of study termination” value ([2]; Group 6, Day 80) was “two”. The “Animals whose tumor re-grew at the site of the primary tumor following excision” value ([2]; Group 6, excision Day 28) was “seventeen out of nineteen”, the “Effect on re-growth of tumor at the site of excision of the primary tumor” value ([2]; Group 6 vs Group 5, excision Day 28) was “re-grew at a slower rate” and the “Tumors growing / animals with tumor at termination of the experiment” value ([2]; no excision (Groups 2 and 3)) was “All twenty tumors grew”. For the same compound, the “Time for median tumor to reach four tumor mass doublings” value ([2]; primary tumor excised Day 28 (Group 6), not reached) was greater than 66.0 days, the “Effect on growth of SC-implanted MOLT-4 xenografts (primary tumor)” value ([2]; no excision) was “not inhibited” and the “Time for median tumor to reach four tumor mass doublings” value ([2]; treatment started Day 14 on established tumor, no excision (Groups 2-4)) was 33.5 days. For the same compound, the “Effect on animal health (body weights over the treatment period)” value ([4]; mouse, in vivo) was “did not adversely affect animal health”, the Tolerability of administration ([4]; non-excision groups, natalizumab and IgG4 IP Days 14-45, Taxol IV Q1Dx5) was “well tolerated without deaths” and the “Tritiated thymidine uptake” value (AS283 cell line) was “no evidence of a cytotoxic or proliferative effect”. The “Preliminary cell proliferation assay: cytotoxic or proliferative effect” value [5] was “no cytotoxic or proliferative effect”, the “Effect on tumor growth, treatment initiated prior to tumor implantation” value [6] was “significant decrease in tumor growth” and the “Tritiated thymidine uptake” value (UM-UC-3 cell line) was “no evidence of a cytotoxic or proliferative effect”. For the same compound, the “Tritiated thymidine uptake” value (MOLT-4 cell line) was “no evidence of a cytotoxic or proliferative effect”.
